# Measurements reported in patent US12415794B2 (Edgewise Therapeutics, Inc., priority 2018, dated 2025).
# Target: T1, cardiac myofibrils (myosin ATPase)
# T1 construct: frozen myofibril pellets obtained from cardiac tissue; from tissue
# Test: Cardiac Myofibril ATPase Assay (counter screen)
# Type: biochemical
# Details: myofibrils 1.0 mg/mL, KCl omitted, Table 5A
# Experimental: Overview: Myosin ATPase activity is assessed by using a coupled reaction system, in which ADP generated by the myosin ATPase function is coupled to the disappearance of NADH through the pyruvate kinase/lactate dehydrogenase (PK-LDH) system. ATPase activity produces ADP, which is used as a substrate for PK to produce pyruvate and regenerate ATP. The pyruvate is then used as a substrate by LDH to oxidize NADH to NAD+. The rate of the reaction is monitored through the time-dependent disappearance of NADH using absorbance at 340 nm. Inhibition of ATPase activity by the assayed compounds is indicated by a reduced rate of NADH loss, relative to vehicle-treated controls, over the experimental time window. To assess the selectivity of the assayed compounds for skeletal myofibrils, the compounds are counter-screened in cardiac myofibrils.
# Example 13: Cardiac Myofibril ATPase Assay
# Following example 11, the counter screen was done using frozen myofibril pellets obtained from cardiac tissue. The assay was done in the same manner as above, with the following notable exceptions: the final well concentration of myofibrils was 1.0 mg/mL and KCl was omitted from the recipe.
# Compounds of Table 1 to 3 were tested, and results of the assays appear in Tables 5a-5c herein. A=IC50 is less than or equal to 10 μM; B=IC50 is greater than 10 μM and less than 100 μM; C=IC50 is greater than 100 μM; and […].
# T1 sequence (P12883 whole entry): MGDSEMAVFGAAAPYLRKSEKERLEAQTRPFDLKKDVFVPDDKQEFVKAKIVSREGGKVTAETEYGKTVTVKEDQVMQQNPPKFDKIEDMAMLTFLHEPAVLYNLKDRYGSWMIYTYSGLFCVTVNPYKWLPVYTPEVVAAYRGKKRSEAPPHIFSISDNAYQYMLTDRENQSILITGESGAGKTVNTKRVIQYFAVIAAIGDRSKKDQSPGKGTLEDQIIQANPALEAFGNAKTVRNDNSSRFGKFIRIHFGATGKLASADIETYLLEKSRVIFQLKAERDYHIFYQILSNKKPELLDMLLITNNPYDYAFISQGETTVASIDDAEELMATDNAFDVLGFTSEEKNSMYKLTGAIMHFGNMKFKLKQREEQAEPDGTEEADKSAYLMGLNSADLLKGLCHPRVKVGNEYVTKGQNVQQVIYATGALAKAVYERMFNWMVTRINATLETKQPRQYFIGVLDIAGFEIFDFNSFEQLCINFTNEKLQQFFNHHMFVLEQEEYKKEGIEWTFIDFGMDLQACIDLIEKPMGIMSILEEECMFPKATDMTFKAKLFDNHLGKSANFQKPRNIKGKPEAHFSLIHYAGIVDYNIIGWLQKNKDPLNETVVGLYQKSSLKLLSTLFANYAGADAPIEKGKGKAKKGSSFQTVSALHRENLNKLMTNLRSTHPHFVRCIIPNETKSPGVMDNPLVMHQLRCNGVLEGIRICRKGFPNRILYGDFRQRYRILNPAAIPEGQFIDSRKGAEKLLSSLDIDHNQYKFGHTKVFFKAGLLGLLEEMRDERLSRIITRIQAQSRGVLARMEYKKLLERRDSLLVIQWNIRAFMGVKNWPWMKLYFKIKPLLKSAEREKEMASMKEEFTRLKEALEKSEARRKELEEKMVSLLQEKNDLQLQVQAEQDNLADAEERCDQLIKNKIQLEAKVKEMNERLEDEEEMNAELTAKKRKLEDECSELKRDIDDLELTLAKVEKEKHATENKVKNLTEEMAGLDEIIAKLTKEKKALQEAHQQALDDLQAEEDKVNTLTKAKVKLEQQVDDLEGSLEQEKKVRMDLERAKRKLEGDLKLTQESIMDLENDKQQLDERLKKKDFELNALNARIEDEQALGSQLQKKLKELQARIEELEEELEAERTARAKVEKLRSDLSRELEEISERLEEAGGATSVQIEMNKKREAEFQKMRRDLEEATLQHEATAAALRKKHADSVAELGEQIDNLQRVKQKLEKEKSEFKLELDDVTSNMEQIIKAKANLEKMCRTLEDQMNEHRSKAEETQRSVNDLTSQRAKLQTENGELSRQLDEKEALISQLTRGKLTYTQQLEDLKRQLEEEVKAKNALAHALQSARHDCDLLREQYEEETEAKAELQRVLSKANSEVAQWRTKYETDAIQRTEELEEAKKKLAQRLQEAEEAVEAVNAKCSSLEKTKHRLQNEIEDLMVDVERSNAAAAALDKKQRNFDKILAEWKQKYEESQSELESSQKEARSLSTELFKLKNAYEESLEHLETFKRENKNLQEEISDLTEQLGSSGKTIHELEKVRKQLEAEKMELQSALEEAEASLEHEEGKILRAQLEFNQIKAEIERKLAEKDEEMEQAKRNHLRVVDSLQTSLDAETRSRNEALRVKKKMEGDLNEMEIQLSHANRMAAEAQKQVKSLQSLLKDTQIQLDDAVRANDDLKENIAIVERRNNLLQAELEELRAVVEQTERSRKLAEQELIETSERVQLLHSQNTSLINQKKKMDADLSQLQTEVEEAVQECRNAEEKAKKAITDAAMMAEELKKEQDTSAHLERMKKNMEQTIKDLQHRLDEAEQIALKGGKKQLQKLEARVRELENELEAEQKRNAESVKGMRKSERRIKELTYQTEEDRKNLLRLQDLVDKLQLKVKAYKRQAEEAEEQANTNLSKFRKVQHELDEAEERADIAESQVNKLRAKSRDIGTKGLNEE
# T1 sequence (P08590 whole entry partner): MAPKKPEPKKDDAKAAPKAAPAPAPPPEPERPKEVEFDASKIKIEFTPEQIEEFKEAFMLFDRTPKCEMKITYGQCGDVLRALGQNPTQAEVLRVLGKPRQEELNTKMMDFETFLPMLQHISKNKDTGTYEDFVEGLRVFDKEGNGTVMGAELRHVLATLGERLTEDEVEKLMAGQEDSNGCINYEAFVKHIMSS
# T1 sequence (P10916 whole entry partner): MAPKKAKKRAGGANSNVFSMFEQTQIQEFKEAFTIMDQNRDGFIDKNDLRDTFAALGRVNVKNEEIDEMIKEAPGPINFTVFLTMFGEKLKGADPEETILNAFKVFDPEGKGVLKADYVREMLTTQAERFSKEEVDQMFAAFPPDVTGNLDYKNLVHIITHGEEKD
row,IC50 [µM],Compound
1,> 100,"CCNC(=O)Cn1nc(-c2cnc(OC(F)F)cc2F)ccc1=O [Compound I-80, 2-(3-(6-(difluoromethoxy)-4-fluoropyridin-3-yl)-6-oxopyridazin-1(6H)-yl)-N-ethylacetamide]"
2,> 100,"CC[C@H](C)NC(=O)Cn1nc(-c2ccc(OC(F)F)nc2)ccc1=O [Compound I-9, (S)-N-(sec-butyl)-2-(3-(6-(difluoromethoxy)pyridin-3-yl)-6-oxopyridazin-1(6H)-yl)acetamide]"
3,> 100,"O=C(Cn1nc(-c2ccc(OC(F)(F)F)nc2)ccc1=O)NCc1ccccc1Cl [Compound I-3, N-(2-chlorobenzyl)-2-(6-oxo-3-(6-(trifluoromethoxy)pyridin-3-yl)pyridazin-1(6H)-yl)acetamide]"
4,> 100,"CCNC(=O)Cn1nc(-c2ccc(N3C[C@@H]4COCC3CO4)nc2)ccc1=O [Compound I-81, 2-(3-(6-((5R)-3,6-dioxa-8-azabicyclo[3.2.2]nonan-8-yl)pyridin-3-yl)-6-oxopyridazin-1(6H)-yl)-N-ethylacetamide]"

# Same assay, conditions: myofibrils 1.0 mg/mL, KCl omitted, Table 5C
row,Compound,IC50 [µM]
1,"CC(C)NC(=O)Cn1nc(-c2ccc(Cl)cc2)ccc1=O [IIIc-15, 2-(3-(4-chlorophenyl)-6-oxopyridazin-1(6H)-yl)-N-isopropylacetamide]",> 100
2,"O=C(Cn1nc(-c2ccccc2)ccc1=O)N(C1=CCCCC1)C1CC1 [IIIc-59, N-(cyclohex-1-en-1-yl)-N-cyclopropyl-2-(6-oxo-3-phenylpyridazin-1(6H)-yl)acetamide]",> 100
3,"Cc1cccnc1NC(=O)Cn1nc(-c2ccc(Cl)cc2)ccc1=O [IIIc-24, 2-(3-(4-chlorophenyl)-6-oxopyridazin-1(6H)-yl)-N-(3-methylpyridin-2-yl)acetamide]",> 100
4,"O=C(Cn1nc(-c2ccc(F)cc2)ccc1=O)NCc1cccc(F)c1 [IIIc-43, N-(3-fluorobenzyl)-2-(3-(4-fluorophenyl)-6-oxopyridazin-1(6H)-yl)acetamide]",> 100
5,"O=C(Cn1nc(-c2ccc(Cl)cc2)ccc1=O)NC1CCCC1 [IIIc-37, 2-(3-(4-chlorophenyl)-6-oxopyridazin-1(6H)-yl)-N-cyclopentylacetamide]",> 100
6,"COc1ccc(-c2ccc(=O)n(CC(=O)N3CCCC3)n2)cc1 [IIIc-10, 6-(4-methoxyphenyl)-2-(2-oxo-2-(pyrrolidin-1-yl)ethyl)pyridazin-3(2H)-one]",> 100
7,"O=C(Cn1nc(-c2ccc(Cl)cc2)ccc1=O)NC1CCCCC1 [IIIc-39, 2-(3-(4-chlorophenyl)-6-oxopyridazin-1(6H)-yl)-N-cyclohexylacetamide]",> 100
8,"COc1ccc(NC(=O)Cn2nc(-c3ccc(Cl)cc3)ccc2=O)c(OC)c1 [IIIc-25, 2-(3-(4-chlorophenyl)-6-oxopyridazin-1(6H)-yl)-N-(2,4-dimethoxyphenyl)acetamide]",> 100
9,"O=C(Cn1nc(-c2ccc(Cl)cc2)ccc1=O)NC1CC1 [IIIc-36, 2-(3-(4-chlorophenyl)-6-oxopyridazin-1(6H)-yl)-N-cyclopropylacetamide]",> 100

# More lines, now with the values ahead:
row,IC50 [µM],Compound
1,> 100,"O=C(Cn1nc(-c2ccc(Cl)cc2)ccc1=O)Nc1ccc2cc[nH]c2c1 [IIIc-21, 2-(3-(4-chlorophenyl)-6-oxopyridazin-1(6H)-yl)-N-(1H-indol-6-yl)acetamide]"
2,> 100,"CC(C)(CNC(=O)Cn1nc(-c2ccccc2)ccc1=O)c1ccccc1F [IIIc-61, N-(2-(2-fluorophenyl)-2-methylpropyl)-2-(6-oxo-3-phenylpyridazin-1(6H)-yl)acetamide]"
3,> 100,"COc1ccc(-c2ccc(=O)n(CC(=O)NCC(C)C)n2)c(F)c1 [IIIb-42, 2-(3-(2-fluoro-4-methoxyphenyl)-6-oxopyridazin-1(6H)-yl)-N-isobutylacetamide]"
4,> 100,"COc1ccc(-c2ccc(=O)n(CC(=O)N3CCC(C(N)=O)CC3)n2)cc1 [IIIc-11, 1-(2-(3-(4-methoxyphenyl)-6-oxopyridazin-1(6H)-yl)acetyl)piperidine-4-carboxamide]"
5,> 100,"COc1ccc(-c2ccc(=O)n(CC(=O)N3CCCC3)n2)cc1OC [IIIc-9, 6-(3,4-dimethoxyphenyl)-2-(2-oxo-2-(pyrrolidin-1-yl)ethyl)pyridazin-3(2H)-one]"
6,> 100,"O=C(Cn1nc(-c2ccc(F)cc2)ccc1=O)N1CCCC1 [IIIc-46, 6-(4-fluorophenyl)-2-(2-oxo-2-(pyrrolidin-1-yl)ethyl)pyridazin-3(2H)-one]"
7,> 100,"COc1ccc(Cl)cc1NC(=O)Cn1nc(-c2ccc(Cl)cc2)ccc1=O [IIIc-26, N-(5-chloro-2-methoxyphenyl)-2-(3-(4-chlorophenyl)-6-oxopyridazin-1(6H)-yl)acetamide]"
8,> 100,"CCOc1ccc(-c2ccc(=O)n(CC(=O)N3CCCc4ccccc43)n2)cc1 [IIIc-8, 2-(2-(3,4-dihydroquinolin-1(2H)-yl)-2-oxoethyl)-6-(4-ethoxyphenyl)pyridazin-3(2H)-one]"
9,> 100,"O=C(Cn1nc(-c2ccc(Cl)cc2)ccc1=O)NCc1cccc(Cl)c1 [IIIc-34, N-(3-chlorobenzyl)-2-(3-(4-chlorophenyl)-6-oxopyridazin-1(6H)-yl)acetamide]"
10,> 100,"O=C(Cn1nc(-c2ccc(Br)cc2)ccc1=O)NC1CCCC1 [IIIc-41, 2-(3-(4-bromophenyl)-6-oxopyridazin-1(6H)-yl)-N-cyclopentylacetamide]"
11,> 100,"O=C(Cn1nc(-c2ccc(Br)cc2)ccc1=O)NC1CCCCC1 [IIIc-42, 2-(3-(4-bromophenyl)-6-oxopyridazin-1(6H)-yl)-N-cyclohexylacetamide]"
12,> 100,"CCNC(=O)Cn1nc(-c2ccc(OCC3(F)COC3)cc2)ccc1=O [IIIa-27, N-ethyl-2-(3-(4-((3-fluorooxetan-3-yl)methoxy)phenyl)-6-oxopyridazin-yl)acetamide]"
13,> 100,"O=C(Cn1nc(-c2ccc(F)cc2)ccc1=O)Nc1ccccc1F [IIIc-45, N-(2-fluorophenyl)-2-(3-(4-fluorophenyl)-6-oxopyridazin-1(6H)-yl)acetamide]"
14,> 100,"O=C(Cn1nc(-c2ccc(Cl)cc2)ccc1=O)NCc1ccccc1Cl [IIIc-14, N-(2-chlorobenzyl)-2-(3-(4-chlorophenyl)-6-oxopyridazin-1(6H)-yl)acetamide]"
15,> 100,"COc1ccc(OC)c(NC(=O)Cn2nc(-c3ccc(Cl)cc3)ccc2=O)c1 [IIIc-29, 2-(3-(4-chlorophenyl)-6-oxopyridazin-1(6H)-yl)-N-(2,5-dimethoxyphenyl)acetamide]"
16,> 100,"O=C(Cn1nc(-c2ccccc2)ccc1=O)NCCN1CCc2ccccc21 [IIIc-60, N-(2-(indolin-1-yl)ethyl)-2-(6-oxo-3-phenylpyridazin-1(6H)-yl)acetamide]"
